Results published in PMC6792352, “Limited Chemical Structural Diversity Found to Modulate Thyroid Hormone Receptor in the Tox21 Chemical Library” (Environmental Health Perspectives, 2019).
Where two headings read alike, the source gives them in different places.

Legend:
[1] = biological target: T1, TRα ligand-binding domain (Homo sapiens, UniProt P10827); experiment: TRa-coa LanthaScreen TR-FRET coactivator (SRC-2 peptide) recruitment, agonist (TOX21_TRA_COA_Agonist_Followup_ratio, aeid 2230); assay type: biochemical; settings: for AC50: cell-free coactivator recruitment, read-out: TRa-coa-Ag AC50; for TRa-coa hitc: hit call from tcpl, agonist; for Emax: read-out: EMax (% of Control) tra-coa-agonist-followup-1
T1 construct: the receptor LBDs expressed as glutathione S-transferase (GST) fusion proteins; purchased
T1 sequence (P10827 163-410 isoform P10827-2 limits assumed, other chains not shown): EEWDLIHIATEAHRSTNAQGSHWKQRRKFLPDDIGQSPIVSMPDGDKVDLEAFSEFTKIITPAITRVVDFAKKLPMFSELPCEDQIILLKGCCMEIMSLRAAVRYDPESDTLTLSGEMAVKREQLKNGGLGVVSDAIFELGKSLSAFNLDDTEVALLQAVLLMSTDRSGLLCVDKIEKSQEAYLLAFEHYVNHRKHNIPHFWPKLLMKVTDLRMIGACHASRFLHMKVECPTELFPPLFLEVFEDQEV

[2] = system: thyroid hormone receptor (TR); experiment: Classification of TR actives across characterization assays (TR-Ag / RXR-Ag; TR model binary); settings: for Categorization Code: TR agonist characterization; for Classification: TR-Ag = TR agonist, RXR-Ag = RXR agonist
Outline: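 GH3-TRE qHTS agonist, antagonist and viability modes over 8,305 compounds; 84 candidates rescreened in GH3-TRE-Ag, TRβ- and RXRα-UAS-bla HEK 293T one-hybrid assays, HEK293T viability, and TRα/TRβ coactivator recruitment. Actives classified binary after removing pharmaceuticals.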

[3] = biological target: T2, human RXRα (Homo sapiens, UniProt P19793); experiment: RXRa-bla-Ag mammalian one-hybrid beta-lactamase assay (TOX21_TR_RXR_BLA_Agonist_Followup_ratio, aeid 2253); assay type: cell-based; settings: for tr-followup-rxr-bla-agonist-1 hitc: hit call from tcpl; for Emax: read-out: EMax (% of Control) tr-followup-rxr-bla-agonist-1
T2 construct: host or cells: GeneBLAzer UAS-bla HEK 293T
T2 sequence (P19793 227-458 limits assumed): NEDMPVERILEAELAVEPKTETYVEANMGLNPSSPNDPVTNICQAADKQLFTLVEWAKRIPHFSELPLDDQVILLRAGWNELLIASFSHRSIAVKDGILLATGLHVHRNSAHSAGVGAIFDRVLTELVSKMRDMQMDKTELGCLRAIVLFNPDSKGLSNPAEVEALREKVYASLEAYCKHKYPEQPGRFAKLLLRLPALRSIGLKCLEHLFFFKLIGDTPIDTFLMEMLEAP

[4] = system: thyroid hormone receptor (endogenous TRα and TRβ); experiment: GH3-TRE-Ag primary qHTS, luciferase reporter, agonist mode (TOX21_TR_LUC_GH3_Agonist, aeid 803); assay type: cell-based, rat; settings: for GH3-TRE-Ag AC50 hitc: hit call from tcpl; for AC50: read-out: GH3-TRE-Ag AC50
[5] = biological target: T3, human TRβ ligand-binding domain (Homo sapiens, UniProt P10828); experiment: TRb-bla agonist mammalian one-hybrid beta-lactamase assay (TOX21_TRB_BLA_Agonist_Followup_ratio, aeid 2236); assay type: cell-based; design: host or cells: GeneBLAzer UAS-bla HEK 293T; settings: for AC50: HEK 293T one-hybrid, agonist mode, read-out: TRb-bla-Ag AC50; for TRb-bla hitc: hit call from tcpl, agonist; for Emax: read-out: EMax (% of Control) trb-bla-agonist-followup-1
T3 sequence (P10828 217-461 limits assumed): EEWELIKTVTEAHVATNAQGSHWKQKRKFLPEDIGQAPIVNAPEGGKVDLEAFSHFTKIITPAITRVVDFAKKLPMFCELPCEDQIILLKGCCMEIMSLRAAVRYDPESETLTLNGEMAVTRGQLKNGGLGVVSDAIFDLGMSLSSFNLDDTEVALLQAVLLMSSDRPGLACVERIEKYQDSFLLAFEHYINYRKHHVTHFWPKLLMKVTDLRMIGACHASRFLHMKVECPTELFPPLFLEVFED

[6] = system: thyroid hormone receptor (endogenous TRα and TRβ); experiment: GH3-TRE-Ag-Followup confirmation (TOX21_TR_LUC_GH3_Agonist_Followup, aeid 2226); assay type: cell-based, rat; settings: for AC50: confirmation, agonist mode, read-out: GH3-TRE-Ag-Followup AC50; for GH3-TRE-Ag-Followup hitc: hit call from tcpl
[7] = system: Tox21 cell viability assays (different cell types); experiment: Global cytotoxicity: eighteen Tox21 cell viability assays; assay type: cell-based
[8] = as above; assay type: cell-based; settings: read-out: Global cytotoxicity AC50 median
[9] = system: GH3-TRE-Luc cell line; experiment: GH3-TRE-Via cell viability, CellTiter-Fluor (TOX21_TR_LUC_GH3_Antagonist_viability, aeid 805); settings: hit call from tcpl
[10] = as above; settings: rat
[11] = biological target: T3, human TRβ ligand-binding domain; experiment: TRb-coa LanthaScreen TR-FRET coactivator (SRC-2 peptide) recruitment, agonist (TOX21_TRB_COA_Agonist_Followup_ratio, aeid 2244); assay type: biochemical; design: host or cells: GeneBLAzer UAS-bla HEK 293T; settings: for AC50: cell-free coactivator recruitment, read-out: TRb-coa-Ag AC50; for TRb-coa hitc: hit call from tcpl, agonist; for Emax: read-out: EMax (% of Control) trb-coa-agonist-followup-1
[12] = system: GH3-TRE-Luc cell line; settings: rat, 24 h
[13] = system: thyroid hormone receptor (endogenous TRα and TRβ); experiment: GH3-TRE-Antag primary qHTS, luciferase reporter, antagonist mode with 1 nM T3 (TOX21_TR_LUC_GH3_Antagonist, aeid 804); assay type: cell-based, rat; settings: antagonist mode, 1 nM T3; read-out: GH3-TRE-Antag AC50
[14] = # active of 18 total Tox21 viability assays
[15] = median over Tox21 viability assays
[16] = median over 18 Tox21 cell viability assays (Judson et al. 2016, invitrodb_v2)

Row | Structure (SMILES) | Categorization Code [2] | Classification [2] | AC50 [1] | TRa-coa hitc [1] | Emax [1] | tr-followup-rxr-bla-agonist-1 hitc [3] | EMax (% of Control) gh3-tre-agonist [4] | GH3-TRE-Ag AC50 hitc [4] | AC50 [5] | TRb-bla hitc [5] | Emax [5] | EMax (% of Control) gh3-tre-agonist-followup-1_agonist [6] | AC50 [6] | GH3-TRE-Ag-Followup hitc [6] | GLOBAL CYTOTOXICITY cytotox.median [7, 15] | AC50 [8, 16] | AC50 at 24 h [10] | AC50 [11] | TRb-coa hitc [11] | Emax [11] | further results
1 | C[C@]12CC[C@H]3C(=CCc4cc(O)ccc43)[C@@H]1CCC2=O [Equilin, reference compound] | RXR-Ag | RXR-Ag | > 92 µM | 0 | 1.7% | 1 | 90.8 % of Control | 1 | > 92 µM | 0 | 13.5% | 6.3 % of Control | > 92 µM | 0 | >92 | > 92 µM | 85.1 µM | > 92 µM | 0 | -0.4% | AC50 ([3]; HEK 293T one-hybrid, agonist mode, inactive set to 1,000, read-out: RXRa-bla-Ag AC50): 0.986 µM; Emax [3]: 61.3%; GLOBAL CYTOTOXICITY cytotox.number_Active [7, 14]: 0; TR_LUC_GH3_Antagonist_viability hitc [9]: 1
2 | Nc1nc(F)nc2c1ncn2[C@@H]1O[C@H](CO)[C@@H](O)[C@@H]1O [Fludarabine, reference compound] |  |  |  |  |  |  |  |  |  |  |  |  |  |  |  |  | 22.3 µM |  |  |  | AC50 ([4]; antagonist candidates, inactive samples arbitrarily set to AC50=1,000 μM): > 92 µM; AC50 [13]: 16.3 µM; Active in global cytotoxicity assays (%) [7]: 1.7%; AC50 ([8]; median over 18 Tox21 cell viability assays, inactive set to 1,000): > 92 µM

Now from value to molecule, other results behind:

Row | Categorization Code [2] | Classification [2] | Structure (SMILES) | AC50 [1] | TRa-coa hitc [1] | Emax [1] | tr-followup-rxr-bla-agonist-1 hitc [3] | EMax (% of Control) gh3-tre-agonist [4] | GH3-TRE-Ag AC50 hitc [4] | AC50 [5] | TRb-bla hitc [5] | Emax [5] | EMax (% of Control) gh3-tre-agonist-followup-1_agonist [6] | AC50 [6] | GH3-TRE-Ag-Followup hitc [6] | GLOBAL CYTOTOXICITY cytotox.median [7, 15] | AC50 [8, 16] | AC50 at 24 h [10] | AC50 [11] | TRb-coa hitc [11] | Emax [11] | further results
3 | RXR-Ag | RXR-Ag | CC1=C(/C=C/C(C)=C/C=C/C(C)=C/C(=O)O)C(C)(C)CCC1 [all trans-Retinoic acid, reference compound] | > 92 µM | 0 | -0.347% |  | 29.3 % of Control | 1 |  | 1 | 31.1% | 97.2 % of Control | 1.16 µM | 1 | >92 | > 92 µM | 66.7 µM | > 92 µM | 0 | 0% | TR_LUC_GH3_Antagonist_viability hitc [12]: 1; AC50 ([4]; primary qHTS, agonist mode, 24 h, top concentration 92 μM): 0.234 µM; GLOBAL CYTOTOXICITY cytotox.number_Active [7]: 0
4 | TR-Ag | TR-Ag | O=C(O)Cc1cc(I)c(Oc2cc(I)c(O)c(I)c2)c(I)c1 [Tetrac, 3,3ʹ,5,5ʹ-tetraiodothyroacetic acid] | 0.248 µM | 1 | 153% | 1 | 113.5 % of Control | 1 | 0.0209 µM | 1 | 204% | 123.6 % of Control | 0.006 µM | 1 | 35.7 | 35.7 µM | 51.3 µM | 0.227 µM | 1 | 122% | Emax [3]: 61.6%; TR_LUC_GH3_Agonist_EMAX (% Control) ([4]; Table S5): 105.7 % Control; GLOBAL CYTOTOXICITY cytotox.number_Active [7, 14]: 5; TR_LUC_GH3_Antagonist_viability hitc [9]: 1
5 | RXR-Ag | RXR-Ag | CC1=C(/C=C/C(C)=C/C=C/C(C)=C\C(=O)O)C(C)(C)CCC1 [13-cis Retinoic acid, reference compound] | > 92 µM | 0 | -0.319% |  | 29.3 % of Control | 1 | > 92 µM | 0 | 6.8% | 46.3 % of Control | 0.0348 µM | 1 |  | 46.3 µM | 81.3 µM | > 92 µM | 0 | -0.0945% | TR_LUC_GH3_Antagonist_viability hitc [12]: 1; activity in GH3-TRE agonist assay [4]: partial agonist; EMax in GH3-TRE-Ag assay ([4]; percent of positive control T3): 24 % of control; activity in TRβ-bla as agonist [5]: not active; GLOBAL CYTOTOXICITY cytotox.median [7]: 46.3; GLOBAL CYTOTOXICITY cytotox.number_Active [7]: 5; activity in TRb-coa biochemical assay [11]: not active
